This is an account of results in patent publication US10253039B2, “Inhibitors of bacterial DNA gyrase with efficacy against gram-negative bacteria” (priority 2014, dated 2019).

Common to all, as to type: cell-based
Assay [1] has as its system E. coli BW25113. Kind of assay: MIC, microdilution in 96-well plates. The note with it: Escherichia coli, BW25113, B: E. coli BW25113; read-out: MIC. In short, it runs like this:
(§1)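 Each of the 20 strains is tested in LB at a 1:10000 dilution of a growing subculture. Compound is titrated 2-fold in three replicates; a DMSO column serves as vehicle control. After shaking incubation at 37° C. for 16-18 hours, MIC is taken as the lowest clear concentration.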
A general note: Dilution methods test growth across graded concentrations, often in twofold steps.

Assay [2] deals with Edwardsiella tarda. Kind of assay: MIC, microdilution in 96-well plates. The note with it: D: Edwardsiella tarda. The procedure, abridged: as §1
Assay [3] relates to E. coli JW5503 (deltolC). Kind of assay: MIC, 20-strain panel. The conditions noted are these: Escherichia coli, C: E. coli JW5503 (deltolC). The procedure, abridged: as §1
The subject of assay [4] is E. coli MG1655. Description: MIC, 20-strain panel. The conditions noted are these: Escherichia coli, MG1655, A: E. coli MG1655; read-out: MIC. In short, it runs like this: as §1
Assay [5] has as its system Klebsiella pneumoniae subsp. pneumoniae. Description: MIC, 20-strain panel. The conditions noted are these: E: Klebsiella pneumoniae subsp. pneumoniae. The procedure, abridged: as §1
The test system of assay [6] is Salmonella enterica subsp. enterica typhimurium. Kind of assay: MIC, 20-strain panel. The note with it: F: Salmonella enterica subsp. enterica Typhimurium. The procedure, abridged:
as §1

Assay [7] relates to Shigella flexneri. Kind of assay: MIC, 20-strain panel. The conditions noted are these: G: Shigella flexneri. In short, it runs like this: as §1
The subject of assay [8] is Staphylococcus aureus subsp. aureus. Kind of assay: MIC, 20-strain panel. The conditions noted are these: H: Staphylococcus aureus subsp. aureus, read-out: MIC. The procedure, abridged:
as §1

The test system of assay [9] is Staphylococcus epidermidis. Kind of assay: MIC, 20-strain panel. The procedure, abridged:
as §1

In assay [10] the test system is Staphylococcus saprophyticus subsp. saprophyticus. Description: MIC, 20-strain panel. The procedure, abridged: as §1
Assay [11] deals with Streptococcus agalactiae. Kind of assay: MIC, 20-strain panel. In short, it runs like this:
as §1

The test system of assay [12] is Streptococcus pyogenes. Description: MIC, 20-strain panel. In short, it runs like this: as §1

Values after ≈ are worked out from the molar mass of the structure shown.

Regarding `CC(C)Oc1ccc(CN2CC[C@@H](NS(=O)(=O)c3cccc4cccnc34)C2)cc1` [Compound 84], the MIC in [1] was more than 8 µg/mL; in assay [2] it was more than 8 µg/mL; in [3] it was 1 µg/mL (≈ 2.35 µM); in [4], more than 8 µg/mL; in [5] it was more than 8 µg/mL; in assay [6] it was more than 8 µg/mL. Moreover, the minimal inhibitory concentration (MIC) in assay [7], in assay [8], in [9], in assay [10], in assay [11] and in assay [12] was more than 8 µg/mL in each case.

With `Cc1c(S(=O)(=O)N[C@@H]2CCN(Cc3ccc(OC4CC4)cc3)C2)sc2ccc(Cl)cc12` [Compound 85], the MIC in assay [1] is more than 8 µg/mL; in assay [2] it was more than 8 µg/mL; in assay [3] it was approximately 8 µg/mL (≈ 16.8 µM); in assay [4], more than 8 µg/mL; in assay [5], more than 8 µg/mL; in assay [6], more than 8 µg/mL. Also, the minimum inhibitory concentration (MIC) was more than 8 µg/mL in assay [7]; approximately 8 µg/mL (≈ 16.8 µM) in assay [8]; 4 µg/mL (≈ 8.38 µM) in assay [9]; more than 8 µg/mL in [10]; more than 8 µg/mL in [11]; 8 µg/mL (≈ 16.8 µM) in assay [12].

Take `CSc1ccc(CN2CC[C@@H](NS(=O)(=O)c3cccc(C(F)(F)F)c3)C2)cc1` [Compound 86]: the MIC in [1] is more than 8 µg/mL; in [2], more than 8 µg/mL; in assay [3] it was 4 µg/mL (≈ 9.29 µM); in [4], more than 8 µg/mL; in [5], more than 8 µg/mL; in [6], more than 8 µg/mL. Also, the MIC in [7], in [8], in assay [9], in [10], in assay [11] and in assay [12] was more than 8 µg/mL in each case.

As to `O=S(=O)(N[C@@H]1CCN(Cc2ccc(OC(F)F)cc2)C1)c1cccc(C(F)(F)F)c1` [Compound 87], the MIC in assay [1] is more than 8 µg/mL; in assay [2], more than 8 µg/mL; in assay [3] it was 2 µg/mL (≈ 4.44 µM); in assay [4], more than 8 µg/mL; in [5], more than 8 µg/mL; in assay [6], more than 8 µg/mL. The MIC in [7], in assay [8], in [9], in [10], in [11] and in assay [12] was more than 8 µg/mL each time.

For `COc1cc(CN2CC[C@@H](NS(=O)(=O)c3cccc(OC(F)(F)F)c3)C2)ccc1OC(C)C` [Compound 88], the MIC in assay [1], in [2], in assay [3], in assay [4], in [5] and in [6] was more than 8 µg/mL in each case. The MIC in [7], in assay [8], in assay [9], in [10], in assay [11] and in [12] was more than 8 µg/mL in each case.

As for `O=S(=O)(N[C@@H]1CCN(Cc2ccc(OCC(F)F)cc2)C1)c1cccc(OC(F)(F)F)c1` [Compound 89], the MIC was more than 8 µg/mL in [1]; more than 8 µg/mL in assay [2]; 0.5 µg/mL (≈ 1.04 µM) in assay [3]; more than 8 µg/mL in assay [4]; more than 8 µg/mL in assay [5]; 8 µg/mL (≈ 16.7 µM) in assay [6]. The MIC in assay [7], in assay [8], in assay [9], in assay [10], in assay [11] and in assay [12] was more than 8 µg/mL each time.

Consider `O=S(=O)(N[C@@H]1CCN(Cc2ccc(OC3CC3)cc2)C1)c1cc(C(F)(F)F)ccc1Cl` [Compound 90], for which the MIC is approximately 8 µg/mL (≈ 16.8 µM) in assay [1]; more than 8 µg/mL in [2]; less than 0.0625 µg/mL in assay [3]; more than 8 µg/mL in [4]; more than 8 µg/mL in assay [5]; 4 µg/mL (≈ 8.42 µM) in assay [6]. The MIC in [7] was approximately 8 µg/mL (≈ 16.8 µM); in assay [8], more than 8 µg/mL; in [9] it was more than 8 µg/mL; in assay [10], more than 8 µg/mL; in assay [11] it was more than 8 µg/mL; in assay [12], more than 8 µg/mL.

`CC(C)Oc1ccc(CN2CC[C@@H](NS(=O)(=O)c3cc(Cl)cc(C(F)(F)F)c3)C2)cc1` [Compound 92]: the MIC was more than 8 µg/mL in assay [1]; more than 8 µg/mL in [2]; 8 µg/mL (≈ 16.8 µM) in [3]; more than 8 µg/mL in assay [4]; more than 8 µg/mL in [5]; more than 8 µg/mL in assay [6]. Besides, the minimal inhibitory concentration (MIC) in [7], in assay [8], in [9], in assay [10], in assay [11] and in [12] was more than 8 µg/mL in each case.

As for `CC(C)Oc1ccc(CN2CC[C@@H](NS(=O)(=O)c3cnc4ccccc4c3)C2)cc1` [Compound 93], the minimal inhibitory concentration (MIC) in [1], in assay [2], in assay [3], in assay [4], in assay [5] and in assay [6] was more than 8 µg/mL throughout. The MIC in assay [7], in assay [8], in [9], in [10], in assay [11] and in assay [12] was more than 8 µg/mL throughout.

`O=S(=O)(N[C@@H]1CCN(Cc2ccc(OC3CC3)cc2)C1)c1cc(Cl)cc(C(F)(F)F)c1` [Compound 94]: the MIC in assay [1] was more than 8 µg/mL; in assay [2], more than 8 µg/mL; in assay [3] it was 8 µg/mL (≈ 16.8 µM); in assay [4], more than 8 µg/mL; in assay [5] it was more than 8 µg/mL; in assay [6], more than 8 µg/mL. Also, the MIC in assay [7], in assay [8], in [9], in assay [10], in assay [11] and in [12] was more than 8 µg/mL each time.

On to `O=S(=O)(N[C@@H]1CCN(Cc2ccc(OC3CC3)cc2)C1)c1cnc2ccccc2c1` [Compound 95], for which the MIC in assay [1], in [2], in [3], in [4], in [5] and in [6] was more than 8 µg/mL in each case. Further, the MIC in assay [7], in assay [8], in assay [9], in assay [10], in [11] and in [12] was more than 8 µg/mL in each case.

In the case of `O=S(=O)(N[C@@H]1CCN(Cc2ccc(OC3CC3)cc2)C1)c1cccc2cccnc12` [Compound 96], the MIC in [1] is more than 8 µg/mL; in [2], more than 8 µg/mL; in assay [3] it was 1 µg/mL (≈ 2.36 µM); in [4], more than 8 µg/mL; in assay [5], more than 8 µg/mL; in [6], approximately 8 µg/mL (≈ 18.9 µM). The MIC in assay [7], in assay [8], in [9], in [10], in [11] and in [12] was more than 8 µg/mL each time.

`N#Cc1cccc(S(=O)(=O)N[C@@H]2CCN(Cc3ccc(N4CCCC4=O)cc3)C2)c1` [Compound 97]: the minimal inhibitory concentration (MIC) in [1] is more than 8 µg/mL; in assay [2], more than 8 µg/mL; in [3] it was 4 µg/mL (≈ 9.42 µM); in assay [4], more than 8 µg/mL; in [5], more than 8 µg/mL; in assay [6], more than 8 µg/mL. The MIC in assay [7], in assay [8], in assay [9], in assay [10], in assay [11] and in [12] was more than 8 µg/mL each time.

For the molecule `CC(C)Oc1c(Cl)cc(CN2CC[C@@H](NS(=O)(=O)c3cccc(C(F)(F)F)c3)C2)cc1Cl` [Compound 98], the MIC in assay [1], in assay [2], in assay [3], in assay [4], in assay [5] and in [6] was more than 8 µg/mL each time. For the same molecule, the MIC in assay [7], in [8], in assay [9], in assay [10], in assay [11] and in [12] was more than 8 µg/mL throughout.

For the molecule `O=C1CCCN1c1ccc(CN2CC[C@@H](NS(=O)(=O)c3cccc(C(F)(F)F)c3)C2)cc1` [Compound 99], the minimum inhibitory concentration (MIC) is more than 8 µg/mL in [1]; more than 8 µg/mL in [2]; 2 µg/mL (≈ 4.28 µM) in [3]; more than 8 µg/mL in [4]; more than 8 µg/mL in [5]; more than 8 µg/mL in assay [6]. The MIC in [7], in assay [8], in assay [9], in assay [10], in [11] and in [12] was more than 8 µg/mL in each case.

For the molecule `O=C1CCCN1c1ccc(CN2CC[C@@H](NS(=O)(=O)c3cccc(OC(F)(F)F)c3)C2)cc1` [Compound 100], the MIC in assay [1] is more than 8 µg/mL; in assay [2] it was more than 8 µg/mL; in assay [3], 2 µg/mL (≈ 4.14 µM); in [4] it was more than 8 µg/mL; in assay [5] it was more than 8 µg/mL; in [6], more than 8 µg/mL. Besides, the MIC in [7], in [8], in assay [9], in assay [10], in assay [11] and in assay [12] was more than 8 µg/mL in each case.

One may read the MIC as the lowest concentration that inhibits growth of the organism.
